# According to patent EP4682144A1, “SOLID FORM OF PYRROLIDONE DERIVATIVE AS GLUCOKINASE ACTIVATOR” (Hua Medicine (Shanghai) Ltd., priority 2023, dated 2024):
# What was measured:
# [1] = Simulated metabolic test in human intestine S9; type: in vitro ADME
# Protocol: Preparation of phosphate buffer (PB): 73.21 g of K2HPO4·3H2O (AR grade) and 10.78 g of KH2PO4 (AR grade) were dissolved in ultra-pure water to obtain a final volume of 4000 mL and a final concentration of 100 mM. The pH of the final test solution was adjusted to 7.40±0.10 with H3PO4/KOH.
# An Apricot automation workstation was used to add 50 µL/well of HIS9 solution to the corresponding wells of all reaction plates (blank, T0, T5, T15, T30, T45, T60).
# An Apricot automation workstation was used to add 48 µL/well of PB to the corresponding wells of every reaction plate (blank, T0, T5, T15, T30, T45, T60) to start the reaction.
# The reaction plates were incubated at 37 °C, and timer was started. An Apricot automation workstation was used to add 300 µL/well of stop solution (cold acetonitrile containing 200 ng/mL tolbutamide (internal standard)) to the corresponding wells of each reaction plate at the appropriate end time point to stop the reaction.
# Each plate was sealed and shaken for 10 minutes. Each plate was centrifuged at 4000 rpm and 4 °C for 20 minutes. After centrifugation, 100 µL of supernatant was transferred from each reaction plate to the corresponding analysis plate, and mixed well with 300 µL of ultra-pure water.
# [2] = Pharmacokinetic study in rats (IV and PO); type: in vivo, SD male rats; conditions: rats, intravenous injection
# Protocol: Each group was divided into 2 subgroups (intravenous bolus group (IV) and gavage group (PO)).
# Whole blood samples (about 0.2 mL per time point) were collected at pre-dose (0), 0.083, 0.25, 0.5, 1, 2, 4, 8, 12, and 24 hours post-dose by jugular vein puncture. All the blood samples were immediately transferred into labeled pre-chilled commercial microcentrifuge tubes containing 4 µL of 0.5M K2-EDTA and 10 µL of cocktail stabilizer. Samples were placed on wet ice until centrifugation (within 30 min). Plasma samples were then prepared by centrifuging the blood samples at approximately 4 °C, 3200xg for 10 minutes. Supernatant plasma was pipetted, then quickly frozen over dry ice, and then kept at -60 °C or lower temperature until LC-MS/MS analysis.
# The plasma concentrations were subjected to a non-compartmental pharmacokinetic analysis by using the WinNonlin™ software program (version 6.3).
# C57BL/6J mice [3] = assay: Oral glucose tolerance test (OGTT), glucose-lowering effect; type: in vivo; conditions: for blood glucose values after glucose administration: compound A-49.1 mg/kg group, 60 min, and 120 min
# Protocol: (§1) There were 7 groups of mice, with 8 mice in each group. […] Oral glucose tolerance test (OGTT) was performed 1 hour after administration. The blood glucose level in mice was tested before administration (-60 min), before sugar administration (0 min), and at 15 min, 30 min, 60 min, and 120 min after sugar administration. In addition, 40 µl of blood was collected from the tail tip before sugar administration (0 min) and at 15 min after sugar administration to collect the plasma for an insulin level test.
# (§2) All data was transferred into an Excel document. The blood glucose results were expressed in mg/dL and expressed as MEAN ± SEM. Differences between multiple groups were analyzed using Dunnett's method in one-way analysis of variance (ANOVA) or two-way analysis of variance (ANOVA) with Graphpad Prism 8 software for comparison, and the differences were considered statistically significant when the P value was less than 0.05.
# C57BL/6J mice [4] = assay: Plasma insulin level test during OGTT; type: in vivo
# Protocol: as §1, §2
# [5] = Preliminary solubility test in solvents at room temperature; type: physicochemical; conditions: for solubility: thermodynamic from solid
# Protocol: Table 10 Solubility range of the starting material sample at room temperature
# The solubility range in the corresponding solvent was calculated based on the mass of the sample and the volume of the added solvent, as shown in Table 28. The data were used as a base to guide the selection of solvent in screening tests. Table 28 Preliminary solubility of crystal form A of the free state at room temperature
# The solubility range in the corresponding solvent was calculated based on the mass of the sample and the volume of the added solvent, as shown in Table 35. The data were used as a base to guide the selection of solvent in the screening tests.
# [6] = Caco-2 bi-directional permeability test; conditions: human; for recovery at 2 h, 2 µM: Compound A concentration 2.00 µM; for recovery at 2 h, 10 µM: Compound A concentration 10.0 µM
# Protocol: (§3) Caco-2 cell culture: Caco-2 cells (purchased from American Type Culture Collection, ATCC) were inoculated on polyethylene film (PET) of a 96-well culture plate at a concentration of 1x10^5 cells/cm^2. The culture medium was replaced every 4 days until cell confluency to form cell monolayer on day 21 or 28.
# (§4) Transport test: Transport buffer used in the test was Hanks' Balanced Salt Solution (HBSS) containing 10 mM 2-[4-(2-hydroxyethyl)-1-piperazinyl] ethanesulfonic acid (HEPES) with a pH of 7.40 ± 0.05. In vitro permeability studies were performed with Nadolol, Metoprolol and Digoxin as model permeants. […] Digoxin was assessed bi-directionally with a test concentration of 10.0µM (n=2). Nadolol and Metoprolol were assessed unidirectionally both with a test concentration of 2.00 µM (n=2). The final concentration of DMSO in the incubation system was adjusted to <1%.
# Caco-2 cells = assay: Caco-2 bi-directional permeability test; conditions: Caco-2
# Protocol: as §3, §4
# [7] = Caco-2, pH 7.4, Average recovery rate (%) A→B
# [8] = Caco-2, pH 7.4, Average recovery rate (%) B→A
compound,measurement,setting,value
"CC(C)C[C@@H](C(=O)Nc1ccn(C[C@@H](O)COC(=O)c2cccnc2)n1)N1CC(Oc2ccccc2Cl)=CC1=O [Compound A, (R)-3-(3-((S)-2-(4-(2-chlorophenoxy)-2-oxo-2,5-dihydro-1H-pyrrol-1-yl)-4-methylpentanamido)-1H-pyrazol-1-yl)-2-hydroxypropyl nicotinate]",time until completely metabolized and converted into the parent drug HMS5552,[1],≤ 5 min
same,metabolism in rats by intravenous injection,[2],metabolized very rapidly
same,glucose-lowering effect in mice,"C57BL/6J mice [3]; C57BL/6J mice, OGTT",good glucose-lowering effect
same,blood glucose level at 0 min (pre-glucose),"C57BL/6J mice [3]; C57BL/6J mice, oral, 1 hour after administration, versus vehicle control group, dose-response relationship",generally lower than that of the vehicle control group
same,blood glucose values after glucose administration,"C57BL/6J mice [3]; at 15 min, 30 min, versus vehicle control group",significantly lower than that of the vehicle control group
same,blood glucose values after glucose administration,"C57BL/6J mice [3]; at 30 min, versus HMS5552-40mg/kg group",significantly lower than that of the HMS5552-40mg/kg group
same,AUC0-120min of OGTT blood glucose,C57BL/6J mice [3]; medium and high dose groups of compound A versus corresponding dose groups of HMS5552,significantly lower than those of the corresponding dose groups of HMS5552
same,insulin level at 0 min,C57BL/6J mice [4]; compound A high-dose group,significantly higher than that of the vehicle control group and the HMS5552 high-dose group
same,insulin level at 15 min,C57BL/6J mice [4]; compound A-18.4mg/kg group versus corresponding dose group of HMS5552,significantly higher than that of the corresponding dose group of HMS5552
same,insulin level at 15 min,C57BL/6J mice [4]; compound A-18.4mg/kg group versus vehicle control group,significantly higher than that of the vehicle control group
same,insulin level at 15 min,C57BL/6J mice [4]; compound A-49.1mg/kg group versus vehicle control group,significantly higher than that of the vehicle control group
same,Solubility (mg/mL),"[5]; 1,4-Dioxane, room temperature",S>42.0 mg/mL
same,Solubility (mg/mL),"[5]; 2-MeTHF, room temperature",S>42.0 mg/mL
same,solubility,"[5]; 2-MeTHF/n-Heptane (1:4) v/v, 25 °C, organic solvent or mixture, 2-MeTHF/n-Heptane (1:4) v/v, room temperature",< 1000 µg/mL
same,Solubility (mg/mL),"[5]; ACN, room temperature",S>50.0 mg/mL
same,solubility,"[5]; Cyclohexane, 25 °C, organic solvent or mixture, room temperature",< 1100 µg/mL
same,solubility,"[5]; DCM, 25 °C, organic solvent or mixture, room temperature",> 44000 µg/mL
same,solubility,"[5]; DMAc, 25 °C, organic solvent or mixture, room temperature",> 42000 µg/mL
same,solubility,"[5]; DMSO, 25 °C, organic solvent or mixture, room temperature",> 44000 µg/mL
same,Solubility (mg/mL),"[5]; EtOAc, room temperature",S>48.0 mg/mL
same,solubility,"[5]; EtOAc/n-heptane (1:4 v/v), 25 °C, organic solvent or mixture, EtOAc/n-Heptane (1:4) v/v, room temperature",< 1100 µg/mL
same,Solubility (mg/mL),"[5]; EtOH, room temperature",S>46.0 mg/mL
same,solubility,"[5]; EtOH/H2O (1:2) v/v, 25 °C, aqueous with cosolvent or surfactant or cyclodextrin, EtOH/H2O (1:2) v/v, room temperature",2100 to 5300 µg/mL
same,solubility,"[5]; H2O, 25 °C, water, room temperature",< 1100 µg/mL
same,Solubility (mg/mL),"[5]; IPA, room temperature",S>38.0 mg/mL
same,Solubility (mg/mL),"[5]; IPAc, room temperature",S>44.0 mg/mL
same,Solubility (mg/mL),"[5]; MIBK, room temperature",S>40.0 mg/mL
same,solubility,"[5]; MeOH, 25 °C, organic solvent or mixture, room temperature (25±3 °C)",> 50000 µg/mL
same,solubility,"[5]; NMP, 25 °C, organic solvent or mixture, room temperature",> 44000 µg/mL
same,solubility,"[5]; THF, 25 °C, organic solvent or mixture, room temperature",> 40000 µg/mL
same,solubility,"[5]; Toluene/n-Heptane (1:1) v/v, 25 °C, organic solvent or mixture, Toluene/n-Heptane (1:1) v/v, room temperature",1000 to 2000 µg/mL
same,solubility,"[5]; acetone, 25 °C, organic solvent or mixture, room temperature",> 46000 µg/mL
same,solubility,"[5]; acetone/H2O (1:2 v/v), 25 °C, aqueous with cosolvent or surfactant or cyclodextrin, Acetone/H2O (1:2) v/v, room temperature",5300 to 10500 µg/mL
same,solubility,"[5]; chcl3, 25 °C, organic solvent or mixture, CHCl3, room temperature",> 48000 µg/mL
same,solubility,"[5]; n-Heptane, 25 °C, organic solvent or mixture, room temperature",< 1100 µg/mL
same,"recovery at 2 h, 2 µM",[6]; [7],52.9%
same,"recovery at 2 h, 10 µM",[6]; [7],37.5%
same,"recovery at 2 h, 2 µM",[6]; [8],87.1%
same,"recovery at 2 h, 10 µM",[6]; [8],81.6%
same,"recovery at 2 h, 30 µM","[6]; Caco-2, pH 7.4, Average recovery rate (%) B→A, Compound A concentration 30.0 µM",82.2%
same,permeability from A side to B side,Caco-2 cells,low
same,permeability from B side to A side,Caco-2 cells,high
